According to PubChem BioAssay AID1259407 (Chemical Carcinogenesis Research Information System (CCRIS), 2018):
The source made the active and inactive calls. How the calls were made is not given here.

Tested on: CCRIS mutagenicity, Ames/micronucleus/aberration tests
Test: CCRIS mutagenicity studies
[1] = Test System: AMES SALMONELLA TYPHIMURIUM, Strain/Indicator: TA98, Metabolic Activation: NONE, Method: STANDARD PLATE
[2] = Test System: AMES SALMONELLA TYPHIMURIUM, Strain/Indicator: TA100, Metabolic Activation: NONE, Method: STANDARD PLATE
[3] = Test System: AMES SALMONELLA TYPHIMURIUM, Strain/Indicator: TA1535, Metabolic Activation: NONE, Method: STANDARD PLATE
[4] = Test System: AMES SALMONELLA TYPHIMURIUM, Strain/Indicator: TA1537, Metabolic Activation: NONE, Method: STANDARD PLATE
[5] = Test System: AMES SALMONELLA TYPHIMURIUM, Strain/Indicator: TA1538, Metabolic Activation: NONE, Method: STANDARD PLATE

C=CC(=O)OCCCC was tested, and the mutagenic call (Test System: AMES SALMONELLA TYPHIMURIUM, Strain/Indicator: TA98, Metabolic Activation: HAMSTER, LIVER, S-9, AROCLOR 1254 (10%), Method: PREINCUBATION) was “inactive; negative”, the mutagenic call (Test System: AMES SALMONELLA TYPHIMURIUM, Strain/Indicator: TA98, Metabolic Activation: NONE, Method: PREINCUBATION) was “inactive; negative” and the mutagenic call [1] was “inactive; negative”. The mutagenic call (Test System: AMES SALMONELLA TYPHIMURIUM, Strain/Indicator: TA98, Metabolic Activation: RAT, LIVER, S-9, AROCLOR 1254 (10%), Method: PREINCUBATION) was “inactive; negative”, the mutagenic call (Test System: AMES SALMONELLA TYPHIMURIUM, Strain/Indicator: TA98, Metabolic Activation: RAT, LIVER, S-9, AROCLOR 1254, Method: STANDARD PLATE) was “inactive; negative” and the mutagenic call (Test System: AMES SALMONELLA TYPHIMURIUM, Strain/Indicator: TA98, Metabolic Activation: RAT, LIVER, S-9, SODIUM PHENOBARBITAL, Method: STANDARD PLATE) was “inactive; negative”. For the same compound, the mutagenic call (Test System: AMES SALMONELLA TYPHIMURIUM, Strain/Indicator: TA100, Metabolic Activation: HAMSTER, LIVER, S-9, AROCLOR 1254 (10%), Method: PREINCUBATION) was “inactive; negative”, the mutagenic call (Test System: AMES SALMONELLA TYPHIMURIUM, Strain/Indicator: TA100, Metabolic Activation: NONE, Method: PREINCUBATION) was “inactive; negative” and the mutagenic call [2] was “inactive; negative”. For the same compound, the mutagenic call (Test System: AMES SALMONELLA TYPHIMURIUM, Strain/Indicator: TA100, Metabolic Activation: RAT, LIVER, S-9, AROCLOR 1254 (10%), Method: PREINCUBATION) was “inactive; negative”, the mutagenic call (Test System: AMES SALMONELLA TYPHIMURIUM, Strain/Indicator: TA100, Metabolic Activation: RAT, LIVER, S-9, AROCLOR 1254, Method: PREINCUBATION) was “inactive; negative” and the mutagenic call (Test System: AMES SALMONELLA TYPHIMURIUM, Strain/Indicator: TA100, Metabolic Activation: RAT, LIVER, S-9, AROCLOR 1254, Method: STANDARD PLATE) was “inactive; negative”. For the same compound, the mutagenic call (Test System: AMES SALMONELLA TYPHIMURIUM, Strain/Indicator: TA100, Metabolic Activation: RAT, LIVER, S-9, SODIUM PHENOBARBITAL, Method: STANDARD PLATE) was “inactive; negative”, the mutagenic call (Test System: AMES SALMONELLA TYPHIMURIUM, Strain/Indicator: TA1535, Metabolic Activation: HAMSTER, LIVER, S-9, AROCLOR 1254 (10%), Method: PREINCUBATION) was “inactive; negative” and the mutagenic call (Test System: AMES SALMONELLA TYPHIMURIUM, Strain/Indicator: TA1535, Metabolic Activation: NONE, Method: PREINCUBATION) was “inactive; negative”. For the same compound, the mutagenic call [3] was “inactive; negative”, the mutagenic call (Test System: AMES SALMONELLA TYPHIMURIUM, Strain/Indicator: TA1535, Metabolic Activation: RAT, LIVER, S-9, AROCLOR 1254 (10%), Method: PREINCUBATION) was “inactive; negative” and the mutagenic call (Test System: AMES SALMONELLA TYPHIMURIUM, Strain/Indicator: TA1535, Metabolic Activation: RAT, LIVER, S-9, AROCLOR 1254, Method: STANDARD PLATE) was “inactive; negative”. The mutagenic call (Test System: AMES SALMONELLA TYPHIMURIUM, Strain/Indicator: TA1535, Metabolic Activation: RAT, LIVER, S-9, SODIUM PHENOBARBITAL, Method: STANDARD PLATE) was “inactive; negative”, the mutagenic call (Test System: AMES SALMONELLA TYPHIMURIUM, Strain/Indicator: TA1537, Metabolic Activation: HAMSTER, LIVER, S-9, AROCLOR 1254 (10%), Method: PREINCUBATION) was “inactive; negative” and the mutagenic call (Test System: AMES SALMONELLA TYPHIMURIUM, Strain/Indicator: TA1537, Metabolic Activation: NONE, Method: PREINCUBATION) was “inactive; negative”. The mutagenic call [4] was “inactive; negative”, the mutagenic call (Test System: AMES SALMONELLA TYPHIMURIUM, Strain/Indicator: TA1537, Metabolic Activation: RAT, LIVER, S-9, AROCLOR 1254 (10%), Method: PREINCUBATION) was “inactive; negative” and the mutagenic call (Test System: AMES SALMONELLA TYPHIMURIUM, Strain/Indicator: TA1537, Metabolic Activation: RAT, LIVER, S-9, AROCLOR 1254, Method: STANDARD PLATE) was “inactive; negative”. For the same compound, the mutagenic call (Test System: AMES SALMONELLA TYPHIMURIUM, Strain/Indicator: TA1537, Metabolic Activation: RAT, LIVER, S-9, SODIUM PHENOBARBITAL, Method: STANDARD PLATE) was “inactive; negative”, the mutagenic call [5] was “inactive; negative” and the mutagenic call (Test System: AMES SALMONELLA TYPHIMURIUM, Strain/Indicator: TA1538, Metabolic Activation: RAT, LIVER, S-9, AROCLOR 1254, Method: STANDARD PLATE) was “inactive; negative”. For the same compound, the mutagenic call (Test System: AMES SALMONELLA TYPHIMURIUM, Strain/Indicator: TA1538, Metabolic Activation: RAT, LIVER, S-9, SODIUM PHENOBARBITAL, Method: STANDARD PLATE) was “inactive; negative”, the mutagenic call (Test System: MOUSE LYMPHOMA, Strain/Indicator: L5178Y (TK+/TK-), Metabolic Activation: NONE, Method: SUSPENSION/PLATE) was “active; positive. reevaluation of results: positive” and the mutagenic call (Test System: MOUSE LYMPHOMA, Strain/Indicator: L5178Y (TK+/TK-), Metabolic Activation: RAT, LIVER, S-9, AROCLOR 1254, Method: SUSPENSION/PLATE) was “inactive; negative. reevaluation of results: negative”. For the same compound, the mutagenic call (Test System: UDS RODENT CELLS, Strain/Indicator: SHE CELL-MEDIATED, Metabolic Activation: NONE, Method: LIQUID SCINTILLATION COUNTING (THYMIDINE INCORPORATION)) was “inactive; negative”.
CCC(=O)Oc1ccc(/C(CC)=C(\CC)c2ccc(OC(=O)CC)cc2)cc1 was tested, and the mutagenic call [1] was “inactive; negative”, the mutagenic call (Test System: AMES SALMONELLA TYPHIMURIUM, Strain/Indicator: TA98, Metabolic Activation: RAT, LIVER, S-9, Method: STANDARD PLATE) was “inactive; negative” and the mutagenic call [2] was “inactive; negative”. For the same compound, the mutagenic call (Test System: AMES SALMONELLA TYPHIMURIUM, Strain/Indicator: TA100, Metabolic Activation: RAT, LIVER, S-9, Method: STANDARD PLATE) was “inactive; negative”, the mutagenic call [3] was “inactive; negative” and the mutagenic call (Test System: AMES SALMONELLA TYPHIMURIUM, Strain/Indicator: TA1535, Metabolic Activation: RAT, LIVER, S-9, Method: STANDARD PLATE) was “inactive; negative”. The mutagenic call [4] was “inactive; negative”, the mutagenic call (Test System: AMES SALMONELLA TYPHIMURIUM, Strain/Indicator: TA1537, Metabolic Activation: RAT, LIVER, S-9, Method: STANDARD PLATE) was “inactive; negative” and the mutagenic call [5] was “inactive; negative”. For the same compound, the mutagenic call (Test System: AMES SALMONELLA TYPHIMURIUM, Strain/Indicator: TA1538, Metabolic Activation: RAT, LIVER, S-9, Method: STANDARD PLATE) was “inactive; negative”.
With OCc1c2ccccc2c(CO)c2c1ccc1ccccc12 the mutagenic call (Test System: AMES SALMONELLA TYPHIMURIUM, Strain/Indicator: TA98, Metabolic Activation: RAT, LIVER, S-9, NADPH GENERATING SYSTEM, Method: PREINCUBATION) was “inactive; negative” and the mutagenic call (Test System: AMES SALMONELLA TYPHIMURIUM, Strain/Indicator: TA98, Metabolic Activation: RAT, LIVER, S-105, PAPS GENERATING SYSTEM, Method: PREINCUBATION) was “active; positive”.
